In the supplement of paper PMC4862054:
“And” between values parts separate entries of the source, which are not always exact repeats. Identical values can stand only once.

System: CAL-85-1
Test: normalised viability (% of control), CellTiter-Blue; higher = more viable cells (about 100 = DMSO control)
Conditions: incubation time: 72 h
Description: (§1)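 DSRT, CellTiter-Blue viability, 72 h incubation. Signal is normalised to DMSO and benzethonium chloride controls. Value is the normalised response at dose 6.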

Compound | normalised viability
CS(=O)(=O)CCNCc1ccc(-c2ccc3ncnc(Nc4ccc(OCc5cccc(F)c5)c(Cl)c4)c3c2)o1 [Lapatinib] (300 nM) | 89.5% and 86.2%

System: CAL-51
Test: as above
Conditions: incubation time: 72 h
Description: as §1

Compound | normalised viability
CS(=O)(=O)CCNCc1ccc(-c2ccc3ncnc(Nc4ccc(OCc5cccc(F)c5)c(Cl)c4)c3c2)o1 [Lapatinib] (300 nM) | 112% and 98.5%

System: CAL-148
Test: as above
Conditions: incubation time: 72 h
Description: as §1

Compound | normalised viability
CS(=O)(=O)CCNCc1ccc(-c2ccc3ncnc(Nc4ccc(OCc5cccc(F)c5)c(Cl)c4)c3c2)o1 [Lapatinib] (300 nM) | 87.1% and 91.6%

System: DU-4475
Test: as above
Conditions: incubation time: 72 h
Description: as §1

Compound | normalised viability
CS(=O)(=O)CCNCc1ccc(-c2ccc3ncnc(Nc4ccc(OCc5cccc(F)c5)c(Cl)c4)c3c2)o1 [Lapatinib] (300 nM) | 87.4% and 108%

System: MDA-MB-453
Test: as above
Conditions: incubation time: 72 h
Description: as §1

Compound | normalised viability
CS(=O)(=O)CCNCc1ccc(-c2ccc3ncnc(Nc4ccc(OCc5cccc(F)c5)c(Cl)c4)c3c2)o1 [Lapatinib] (300 nM) | 42.9% and 43.1%

System: CAL-85-1
Test: normalised response (% of control), CellTiter-Glo; higher = more viable cells (100 = DMSO, 0 = benzethonium chloride kill control)
Conditions: incubation time: 72 h
Description: (§2)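 DSRT, 72 h incubation, CellTox Green / CellTiter-Glo readout. Signal is normalised to DMSO and benzethonium chloride controls. Value is the normalised response at the highest dose.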

Compound | normalised response
Nc1nccc(-c2c(-c3ccc(F)cc3)ncn2C2CCCCC2)n1 (10000 nM) | 75.7%
CN(c1ccccc1CNc1nc(Nc2ccc3c(c2)CC(=O)N3)ncc1C(F)(F)F)S(C)(=O)=O (10000 nM) | 4.6%

System: BT-549
Test: as above
Conditions: incubation time: 72 h
Description: as §2

Compound | normalised response
Nc1nccc(-c2c(-c3ccc(F)cc3)ncn2C2CCCCC2)n1 (10000 nM) | 92.2%
CN(c1ccccc1CNc1nc(Nc2ccc3c(c2)CC(=O)N3)ncc1C(F)(F)F)S(C)(=O)=O (10000 nM) | 6.21%

System: BT-474
Test: as above
Conditions: incubation time: 72 h
Description: as §2

Compound | normalised response
Nc1nccc(-c2c(-c3ccc(F)cc3)ncn2C2CCCCC2)n1 (10000 nM) | 83.6%
CN(c1ccccc1CNc1nc(Nc2ccc3c(c2)CC(=O)N3)ncc1C(F)(F)F)S(C)(=O)=O (10000 nM) | 18.1%

System: SK-BR-3
Test: as above
Conditions: incubation time: 72 h
Description: as §2

Compound | normalised response
Nc1nccc(-c2c(-c3ccc(F)cc3)ncn2C2CCCCC2)n1 (10000 nM) | 71.8%
CN(c1ccccc1CNc1nc(Nc2ccc3c(c2)CC(=O)N3)ncc1C(F)(F)F)S(C)(=O)=O (10000 nM) | 21.6%

System: CAL-51
Test: as above
Conditions: incubation time: 72 h
Description: as §2

Compound | normalised response
Nc1nccc(-c2c(-c3ccc(F)cc3)ncn2C2CCCCC2)n1 (10000 nM) | 89.2%
CN(c1ccccc1CNc1nc(Nc2ccc3c(c2)CC(=O)N3)ncc1C(F)(F)F)S(C)(=O)=O (10000 nM) | 5.46%

System: Hs578T
Test: as above
Conditions: incubation time: 72 h
Description: as §2

Compound | normalised response
Nc1nccc(-c2c(-c3ccc(F)cc3)ncn2C2CCCCC2)n1 (10000 nM) | 99.9%
CN(c1ccccc1CNc1nc(Nc2ccc3c(c2)CC(=O)N3)ncc1C(F)(F)F)S(C)(=O)=O (10000 nM) | 23.9%

System: MDA-MB-231
Test: as above
Conditions: incubation time: 72 h
Description: as §2

Compound | normalised response
Nc1nccc(-c2c(-c3ccc(F)cc3)ncn2C2CCCCC2)n1 (10000 nM) | 84.4%
CN(c1ccccc1CNc1nc(Nc2ccc3c(c2)CC(=O)N3)ncc1C(F)(F)F)S(C)(=O)=O (10000 nM) | 4.8%

System: MFM-223
Test: as above
Conditions: incubation time: 72 h
Description: as §2

Compound | normalised response
Nc1nccc(-c2c(-c3ccc(F)cc3)ncn2C2CCCCC2)n1 (10000 nM) | 88%
CN(c1ccccc1CNc1nc(Nc2ccc3c(c2)CC(=O)N3)ncc1C(F)(F)F)S(C)(=O)=O (10000 nM) | 48.2%

System: HDQ-P1
Test: as above
Conditions: incubation time: 72 h
Description: as §2

Compound | normalised response
Nc1nccc(-c2c(-c3ccc(F)cc3)ncn2C2CCCCC2)n1 (10000 nM) | 70.5%
CN(c1ccccc1CNc1nc(Nc2ccc3c(c2)CC(=O)N3)ncc1C(F)(F)F)S(C)(=O)=O (10000 nM) | 16.5%

System: CAL-148
Test: as above
Conditions: incubation time: 72 h
Description: as §2

Compound | normalised response
Nc1nccc(-c2c(-c3ccc(F)cc3)ncn2C2CCCCC2)n1 (10000 nM) | 110%
CN(c1ccccc1CNc1nc(Nc2ccc3c(c2)CC(=O)N3)ncc1C(F)(F)F)S(C)(=O)=O (10000 nM) | 73%

System: MDA-MB-468
Test: as above
Conditions: incubation time: 72 h
Description: as §2

Compound | normalised response
Nc1nccc(-c2c(-c3ccc(F)cc3)ncn2C2CCCCC2)n1 (10000 nM) | 70.2%
CN(c1ccccc1CNc1nc(Nc2ccc3c(c2)CC(=O)N3)ncc1C(F)(F)F)S(C)(=O)=O (10000 nM) | 7.14%

System: MCF-10A
Test: as above
Conditions: incubation time: 72 h
Description: as §2

Compound | normalised response
Nc1nccc(-c2c(-c3ccc(F)cc3)ncn2C2CCCCC2)n1 (10000 nM) | 48.5%
CN(c1ccccc1CNc1nc(Nc2ccc3c(c2)CC(=O)N3)ncc1C(F)(F)F)S(C)(=O)=O (10000 nM) | 9.01%

System: HCC1937
Test: as above
Conditions: incubation time: 72 h
Description: as §2

Compound | normalised response
Nc1nccc(-c2c(-c3ccc(F)cc3)ncn2C2CCCCC2)n1 (10000 nM) | 80.2%
CN(c1ccccc1CNc1nc(Nc2ccc3c(c2)CC(=O)N3)ncc1C(F)(F)F)S(C)(=O)=O (10000 nM) | 34.6%

System: MDA-MB-436
Test: as above
Conditions: incubation time: 72 h
Description: as §2

Compound | normalised response
Nc1nccc(-c2c(-c3ccc(F)cc3)ncn2C2CCCCC2)n1 (10000 nM) | 96%
CN(c1ccccc1CNc1nc(Nc2ccc3c(c2)CC(=O)N3)ncc1C(F)(F)F)S(C)(=O)=O (10000 nM) | 18.9%

System: HCC1143
Test: as above
Conditions: incubation time: 72 h
Description: as §2

Compound | normalised response
Nc1nccc(-c2c(-c3ccc(F)cc3)ncn2C2CCCCC2)n1 (10000 nM) | 99.7%
CN(c1ccccc1CNc1nc(Nc2ccc3c(c2)CC(=O)N3)ncc1C(F)(F)F)S(C)(=O)=O (10000 nM) | 17.8%

System: DU-4475
Test: as above
Conditions: incubation time: 72 h
Description: as §2

Compound | normalised response
Nc1nccc(-c2c(-c3ccc(F)cc3)ncn2C2CCCCC2)n1 (10000 nM) | 91.7%
CN(c1ccccc1CNc1nc(Nc2ccc3c(c2)CC(=O)N3)ncc1C(F)(F)F)S(C)(=O)=O (10000 nM) | 2.4%

System: MDA-MB-453
Test: as above
Conditions: incubation time: 72 h
Description: as §2

Compound | normalised response
Nc1nccc(-c2c(-c3ccc(F)cc3)ncn2C2CCCCC2)n1 (10000 nM) | 84.9%
CN(c1ccccc1CNc1nc(Nc2ccc3c(c2)CC(=O)N3)ncc1C(F)(F)F)S(C)(=O)=O (10000 nM) | 56.4%

System: CAL-120
Test: as above
Conditions: incubation time: 72 h
Description: as §2

Compound | normalised response
Nc1nccc(-c2c(-c3ccc(F)cc3)ncn2C2CCCCC2)n1 (10000 nM) | 107%
CN(c1ccccc1CNc1nc(Nc2ccc3c(c2)CC(=O)N3)ncc1C(F)(F)F)S(C)(=O)=O (10000 nM) | 45.7%

System: HCC1599
Test: as above
Conditions: incubation time: 72 h
Description: as §2

Compound | normalised response
Nc1nccc(-c2c(-c3ccc(F)cc3)ncn2C2CCCCC2)n1 (10000 nM) | 101%
CN(c1ccccc1CNc1nc(Nc2ccc3c(c2)CC(=O)N3)ncc1C(F)(F)F)S(C)(=O)=O (10000 nM) | 8.88%

System: CAL-85-1
Test: normalised viability (% of control), CellTiter-Blue; higher = more viable cells (about 100 = DMSO control)
Conditions: incubation time: 72 h
Remark: another data set of the same source
Description: (§3)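 DSRT, CellTiter-Blue viability, 72 h incubation. Signal is normalised to DMSO and benzethonium chloride controls. Value is the normalised response at dose 8.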

Compound | normalised viability
C#Cc1cccc(Nc2ncnc3cc(OC)c(OCCCCCCC(=O)NO)cc23)c1 [CUDC-101] (3000 nM) | 4.33%
CS(=O)(=O)CCNCc1ccc(-c2ccc3ncnc(Nc4ccc(OCc5cccc(F)c5)c(Cl)c4)c3c2)o1 [Lapatinib] (3000 nM) | 52.1% and 54.6%
COc1cc(Nc2ncc(F)c(Nc3ccc4c(n3)NC(=O)C(C)(C)O4)n2)cc(OC)c1OC [R406] (3000 nM) | 67.9%
COC(=O)C[C@](O)(CCCC(C)(C)O)C(=O)O[C@@H]1C(OC)=C[C@]23CCCN2CCc2cc4c(cc2[C@H]13)OCO4 [Omacetaxine mepesuccinate] (3000 nM) | 2%
Cn1c(=O)c(F)c(Nc2ccc(I)cc2F)c2c(=O)n(C[C@@H](O)CO)cnc21 [TAK-733] (300 nM) | 53.5%
CCS(=O)(=O)c1cccc(-c2cc(C(=O)NC3CCN(C)CC3)c(C)c3[nH]c4ncc(C)cc4c23)c1 [TAK-901] (300 nM) | 53.2%
CCCC(CCC)C(=O)O [Valproic acid] (3000 nM) | 90%
O=P(O)(NCCCl)NCCCl [Ifosfamide mustard] (3000 nM) | 96.5%
COC1=C2C[C@@H](C)C[C@H](OC)[C@H](O)[C@@H](C)/C=C(\C)[C@H](OC(N)=O)[C@@H](OC)/C=C\C=C(/C)C(=O)NC(=CC1=O)C2=O [Geldanamycin] (3000 nM) | 11.6%
CC(C)(C)c1cc(NC(=O)Nc2ccc(-c3cn4c(n3)sc3cc(OCCN5CCOCC5)ccc34)cc2)no1 [Quizartinib] (300 nM) | 106%
CC[C@@]1(O)C(=O)OCc2c1cc1n(c2=O)Cc2cc3ccccc3nc2-1 [Camptothecin] (1500 nM) | 25.1%
COC1=CC(c2cc3ccccc3[nH]2)=N/C1=C\c1[nH]c(C)cc1C [Obatoclax] (3000 nM) | 31.2%

System: CAL-51
Test: as above
Conditions: incubation time: 72 h
Remark: another data set of the same source
Description: as §3

Compound | normalised viability
C#Cc1cccc(Nc2ncnc3cc(OC)c(OCCCCCCC(=O)NO)cc23)c1 [CUDC-101] (3000 nM) | 68%
CS(=O)(=O)CCNCc1ccc(-c2ccc3ncnc(Nc4ccc(OCc5cccc(F)c5)c(Cl)c4)c3c2)o1 [Lapatinib] (3000 nM) | 107% and 96.5%
COc1cc(Nc2ncc(F)c(Nc3ccc4c(n3)NC(=O)C(C)(C)O4)n2)cc(OC)c1OC [R406] (3000 nM) | 109%
COC(=O)C[C@](O)(CCCC(C)(C)O)C(=O)O[C@@H]1C(OC)=C[C@]23CCCN2CCc2cc4c(cc2[C@H]13)OCO4 [Omacetaxine mepesuccinate] (3000 nM) | 5.99%
Cn1c(=O)c(F)c(Nc2ccc(I)cc2F)c2c(=O)n(C[C@@H](O)CO)cnc21 [TAK-733] (300 nM) | 76.7%
CCS(=O)(=O)c1cccc(-c2cc(C(=O)NC3CCN(C)CC3)c(C)c3[nH]c4ncc(C)cc4c23)c1 [TAK-901] (300 nM) | 42.5%
CCCC(CCC)C(=O)O [Valproic acid] (3000 nM) | 103%
O=P(O)(NCCCl)NCCCl [Ifosfamide mustard] (3000 nM) | 108%
COC1=C2C[C@@H](C)C[C@H](OC)[C@H](O)[C@@H](C)/C=C(\C)[C@H](OC(N)=O)[C@@H](OC)/C=C\C=C(/C)C(=O)NC(=CC1=O)C2=O [Geldanamycin] (3000 nM) | 8.15%
CC(C)(C)c1cc(NC(=O)Nc2ccc(-c3cn4c(n3)sc3cc(OCCN5CCOCC5)ccc34)cc2)no1 [Quizartinib] (300 nM) | 102%
CC[C@@]1(O)C(=O)OCc2c1cc1n(c2=O)Cc2cc3ccccc3nc2-1 [Camptothecin] (1500 nM) | 4.85%
COC1=CC(c2cc3ccccc3[nH]2)=N/C1=C\c1[nH]c(C)cc1C [Obatoclax] (3000 nM) | 38.5%

System: HDQ-P1
Test: as above
Conditions: incubation time: 72 h
Description: as §3

Compound | normalised viability
C#Cc1cccc(Nc2ncnc3cc(OC)c(OCCCCCCC(=O)NO)cc23)c1 [CUDC-101] (3000 nM) | 41.6%
CS(=O)(=O)CCNCc1ccc(-c2ccc3ncnc(Nc4ccc(OCc5cccc(F)c5)c(Cl)c4)c3c2)o1 [Lapatinib] (3000 nM) | 84.5% and 104%
COc1cc(Nc2ncc(F)c(Nc3ccc4c(n3)NC(=O)C(C)(C)O4)n2)cc(OC)c1OC [R406] (3000 nM) | 98.3%
COC(=O)C[C@](O)(CCCC(C)(C)O)C(=O)O[C@@H]1C(OC)=C[C@]23CCCN2CCc2cc4c(cc2[C@H]13)OCO4 [Omacetaxine mepesuccinate] (3000 nM) | 13.4%
Cn1c(=O)c(F)c(Nc2ccc(I)cc2F)c2c(=O)n(C[C@@H](O)CO)cnc21 [TAK-733] (300 nM) | 63.6%
CCS(=O)(=O)c1cccc(-c2cc(C(=O)NC3CCN(C)CC3)c(C)c3[nH]c4ncc(C)cc4c23)c1 [TAK-901] (300 nM) | 49.2%
CCCC(CCC)C(=O)O [Valproic acid] (3000 nM) | 112%
O=P(O)(NCCCl)NCCCl [Ifosfamide mustard] (3000 nM) | 106%
